Source: ChEMBL document CHEMBL5096196, “Utilizing structure based drug design and metabolic soft spot identification to optimize the in vitro potency and in vivo pharmacokinetic properties leading to the discovery of novel reversible Bruton's tyrosine kinase inhibitors” (Bioorg Med Chem, 2021)

Tests used:
in vitro [1] = conditions: rat, liver microsomes
in vitro [2] = conditions: human, liver microsomes
[3] = Metabolic stability in rat liver microsomes; assay type: ADME, Microsome
[4] = Metabolic stability in human liver microsomes; assay type: ADME, Microsome
physchem = conditions: octanol/water
[5] = Apparent permeability of compound across Caco-2/TC-7 monolayers in human Caco-2 cells by LC/MSMS analysis; assay type: ADME, cell-based

Structure (SMILES) | remaining at 0.5 h (in vitro [1]) | remaining at 0.5 h (in vitro [2]) | also measured
O=C(N[C@@H]1CCCN(c2ncnc3[nH]ncc23)C1)C(O)Nc1cc(Cl)cc(Cl)c1 (some centres not stated) | < 5% | 31% | –
O=C(CO)N[C@@H]1CCCN(c2ncnc3[nH]ncc23)C1 | 11% | 19% | –
N[C@@H](C(=O)N[C@@H]1CCCN(c2ncnc3[nH]ncc23)C1)C1CC1 | – | – | Stability [3]: 7%; Stability [4]: < 5%
O=C1[C@H](Nc2cc(F)cc(Cl)c2)CCCN1[C@@H]1CCCN(c2ncnc3[nH]ncc23)C1 | – | – | logD (physchem): 4
O=C(O)/C=N/[C@@H]1CCCN(c2ncnc3[nH]ncc23)C1 | 85% | 13% | –
O=C1[C@H](Nc2cc(F)cc(Cl)c2)CCCN1[C@@H]1CCCN(c2ncnc3[nH]ccc23)C1 | – | – | Papp [5]: 28 ×10⁻⁶ cm/s
O=C(N[C@@H]1CCCN(c2ncnc3[nH]ncc23)C1)[C@H](O)C1CC1 | – | – | Stability [3]: 6%; Stability [4]: < 5%
